For one molecule, IC50 results are on record in ChEMBL document CHEMBL1130522, “Orevactaene,1 a novel binding inhibitor of HIV-1 rev protein to Rev response element (RRE) from Epicoccum nigrum WC47880” (Bioorg Med Chem Lett, 1997).

The nature of assay [1]: Inhibitory activity towards HIV-I regulatory protein Rev and its viral RNA-binding site, Rev response element (RRE) binding.
Assay [2] has as its system M109. Put plainly: The compound was tested for its cytotoxicity on the murine tumor cell line M109. The assay is classed as functional, cell-based. The following applies: Mus musculus.

The term IC50 denotes the concentration needed to halve the response being measured. On to `CCC(C)CC(C)/C=C(/C=C(C)/C=C/C=C/C=C/C=C/C=C/c1cc2c(c(=O)o1)[C@H](O)[C@@H](O)[C@H](C(O)C(O)CO)O2)C(=O)O` (some centres not stated), for which the concentration for half-maximal inhibition (IC50) in assay [1] is 3.6 µM; in assay [2] it was 82 µM.
